According to ChEMBL document CHEMBL1201862, “PubChem BioAssay data set” (2004):
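48-hour exposure; five concentrations; linearly interpolated endpoints. Here, GI50 denotes the concentration required for 50% inhibition of growth.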 Active and inactive are the calls of the source. No stated cut-off is given here; in the data, active = GI50 up to about 1.1 µM and inactive = higher.

How the values were obtained:
Experiment in all cases: growth of human tumour cells (NCI), 48 h
OVCAR-4 = test system: OVCAR-4
SF-539 = test system: SF-539
SF-295 = test system: SF-295
SK-MEL-28 = test system: SK-MEL-28
K562 = test system: K562
DU-145 = test system: DU-145
A549 = test system: A549
PC-3 = test system: PC-3
OVCAR-3 = test system: OVCAR-3
TK-10 = test system: TK-10
SW-620 = test system: SW-620
CAKI-1 = test system: CAKI-1
Hs-578T = test system: Hs-578T
SK-OV-3 = test system: SK-OV-3
HCT-116 = test system: HCT-116
OVCAR-5 = test system: OVCAR-5
LOX IMVI = test system: LOX IMVI
MDA-MB-435 = test system: MDA-MB-435

Measured: GI50

CC(=O)Oc1cc2c(cc1OCC(F)(F)F)[C@H]1CC[C@]3(C)[C@@H](OC(C)=O)CC[C@H]3[C@@H]1CC2=O
inactive: OVCAR-4 17.5 µM | SF-539 19.3 µM | SF-295 25.1 µM | SK-MEL-28 22.2 µM | K562 16.6 µM | DU-145 20.7 µM | A549 17.6 µM | PC-3 14.5 µM | OVCAR-3 19.5 µM | TK-10 17.5 µM | SW-620 21.7 µM | CAKI-1 17.4 µM | Hs-578T 13.7 µM | SK-OV-3 22 µM | HCT-116 19.3 µM | OVCAR-5 19.8 µM | LOX IMVI 15.4 µM | MDA-MB-435 21.6 µM

Cc1c(-c2nc(N)nc(C3CC3)c2C)nc(N)nc1C1CC1
inactive: OVCAR-4 > 100 µM | SF-539 > 100 µM | SF-295 > 100 µM | SK-MEL-28 > 100 µM | K562 > 100 µM | DU-145 > 100 µM | A549 > 100 µM | PC-3 > 100 µM | OVCAR-3 > 100 µM | TK-10 > 100 µM | SW-620 > 100 µM | CAKI-1 > 100 µM | Hs-578T > 100 µM | SK-OV-3 > 100 µM | HCT-116 > 100 µM | OVCAR-5 > 100 µM | LOX IMVI > 100 µM | MDA-MB-435 > 100 µM

C/N=C(\N)N/N=C(\C)c1ccc2oc3ccc(/C(C)=N/N/C(N)=N/C)cc3c2c1
inactive: OVCAR-4 3.8 µM | SF-539 1.62 µM | SF-295 3.85 µM | SK-MEL-28 3.93 µM | K562 2.15 µM | DU-145 2.35 µM | A549 2.86 µM | PC-3 3.01 µM | OVCAR-3 2.64 µM | TK-10 4.38 µM | SW-620 2.22 µM | CAKI-1 19.4 µM | Hs-578T 1.43 µM | SK-OV-3 3.16 µM | HCT-116 2.79 µM | OVCAR-5 9.35 µM | LOX IMVI 2.56 µM | MDA-MB-435 2.92 µM

N/C(=N\N=C\c1nc2ccccc2o1)c1cnccn1
inactive: OVCAR-4 > 100 µM | SF-539 > 100 µM | SF-295 87.9 µM | SK-MEL-28 > 100 µM | K562 > 100 µM | DU-145 > 100 µM | A549 > 100 µM | PC-3 > 100 µM | OVCAR-3 > 100 µM | TK-10 30.7 µM | SW-620 > 100 µM | CAKI-1 > 100 µM | Hs-578T > 100 µM | SK-OV-3 42.7 µM | HCT-116 > 100 µM | OVCAR-5 > 100 µM | LOX IMVI > 100 µM | MDA-MB-435 > 100 µM

CC(=O)c1c2c(cc3c1CC1(Cc4cc5c(cc4C1)CCC5)C3)CCC2
inactive: OVCAR-4 > 100 µM | SF-539 > 100 µM | SF-295 > 100 µM | SK-MEL-28 > 100 µM | K562 > 100 µM | DU-145 > 100 µM | A549 > 100 µM | PC-3 > 100 µM | OVCAR-3 > 100 µM | TK-10 > 100 µM | SW-620 > 100 µM | CAKI-1 > 100 µM | Hs-578T > 100 µM | SK-OV-3 > 100 µM | HCT-116 75 µM | OVCAR-5 > 100 µM | LOX IMVI > 100 µM | MDA-MB-435 > 100 µM

COC(=O)C1C(=O)C=CN([C@H](C)c2ccccc2)[C@@H]1Cc1ccc(OC)c(OCc2ccccc2)c1I (stereo partly drawn)
inactive: OVCAR-4 8.83 µM | SF-539 19.4 µM | SF-295 16.9 µM | SK-MEL-28 40.6 µM | K562 18.2 µM | DU-145 18.2 µM | A549 15.6 µM | PC-3 13.8 µM | OVCAR-3 14.6 µM | TK-10 23.7 µM | SW-620 27.7 µM | CAKI-1 22 µM | Hs-578T 17.5 µM | SK-OV-3 34 µM | HCT-116 11.7 µM | OVCAR-5 27.4 µM | LOX IMVI 14.5 µM | MDA-MB-435 17 µM

CC(C)/C(Cl)=N\OC(=O)Nc1ccc(F)c([N+](=O)[O-])c1
inactive: OVCAR-4 4.07 µM | SF-539 3 µM | SF-295 19.1 µM | SK-MEL-28 12.6 µM | K562 2.87 µM | DU-145 18.2 µM | A549 23.9 µM | PC-3 18.1 µM | OVCAR-3 14.2 µM | TK-10 6.22 µM | SW-620 2.35 µM | CAKI-1 1.81 µM | Hs-578T 12.1 µM | SK-OV-3 19.1 µM | HCT-116 3.08 µM | OVCAR-5 20.6 µM | LOX IMVI 4.54 µM | MDA-MB-435 12.3 µM

Nc1ccc2c(c1)C(=O)c1ccc(F)cc1-2
inactive: OVCAR-4 > 100 µM | SF-539 > 100 µM | SF-295 > 100 µM | SK-MEL-28 > 100 µM | K562 > 100 µM | DU-145 > 100 µM | A549 > 100 µM | PC-3 > 100 µM | OVCAR-3 > 100 µM | TK-10 > 100 µM | SW-620 > 100 µM | CAKI-1 > 100 µM | Hs-578T > 100 µM | SK-OV-3 > 100 µM | HCT-116 88.5 µM | OVCAR-5 > 100 µM | LOX IMVI > 100 µM | MDA-MB-435 > 100 µM

N#CCOc1cccc(C2(N3CC=CCC3)CCCCC2)c1
inactive: OVCAR-4 > 100 µM | SF-539 > 100 µM | SF-295 > 100 µM | SK-MEL-28 > 100 µM | K562 43 µM | DU-145 > 100 µM | A549 > 100 µM | PC-3 > 100 µM | OVCAR-3 > 100 µM | TK-10 > 100 µM | SW-620 94 µM | CAKI-1 > 100 µM | Hs-578T > 100 µM | SK-OV-3 > 100 µM | HCT-116 > 100 µM | OVCAR-5 > 100 µM | LOX IMVI 97.9 µM | MDA-MB-435 > 100 µM

O=C1CC(c2cccc([N+](=O)[O-])c2)C2(C(=O)NC(=S)NC2=O)C(c2cccc([N+](=O)[O-])c2)C1 (stereo not drawn)
inactive: OVCAR-4 37.4 µM | SF-539 40.6 µM | SF-295 34 µM | SK-MEL-28 52.8 µM | K562 52 µM | DU-145 34.1 µM | A549 31 µM | PC-3 51.6 µM | OVCAR-3 35.2 µM | TK-10 13.9 µM | SW-620 50.7 µM | CAKI-1 12.9 µM | Hs-578T 22.8 µM | SK-OV-3 32.7 µM | HCT-116 18.7 µM | OVCAR-5 39.9 µM | LOX IMVI 16.5 µM | MDA-MB-435 23.5 µM

CC1(C)[C@@H]2CC[C@@]1(C)C1(S[S+]1[O-])C21Cc2ccccc2C1 (stereo partly drawn)
inactive: OVCAR-4 15.6 µM | SF-539 24.5 µM | SF-295 57.1 µM | SK-MEL-28 23.1 µM | K562 17.4 µM | DU-145 21.3 µM | A549 36.8 µM | PC-3 17.9 µM | OVCAR-3 31.7 µM | TK-10 18.8 µM | SW-620 14.7 µM | CAKI-1 20.4 µM | Hs-578T 44.2 µM | SK-OV-3 > 100 µM | HCT-116 14.7 µM | OVCAR-5 20.6 µM | LOX IMVI 15.1 µM | MDA-MB-435 29.4 µM
